Patent US10487092B2, “Pyrazolopyridinamines as MKNK1 and MKNK2 inhibitors” (BAYER PHARMA AKTIENGESELLSCHAFT, priority 2014, dated 2019)

Experiments:
[1] = target: human full-length MKNK1 (Homo sapiens (Human), UniProt Q9BUB5, T344D); test: MKNK1 kinase high ATP assay (TR-FRET); type: biochemical; details: high ATP (2 mM), 15 min preincubation with enzyme; read-out: MKNK1 IC50
In short: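 GST-tagged full-length MKNK1 (aa 1–424, T344D; insect-cell expressed) preincubated 15 min with compound, then reacted 30 min at 22 °C with 2 mM ATP and 0.06 μM biotinylated peptide (final) in HEPES pH 7.5 buffer. Phosphopeptide detected by TR-FRET 665/620 ratio, normalized to no-inhibitor and no-enzyme controls.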

[2] = system: secretion of TNF-α in human PBMCs; test: In vitro IL-1β-induced cytokine (TNF-α) secretion of human PBMCs; type: cell-based; details: PBMC; human PBMCs stimulated with 20 ng/ml IL-1β for 24 hours
Text: In Vitro IL-1β (Interleukin-1 beta, IL-1b)-Induced Cytokine Secretion of Human PBMCs (Peripheral Blood Mononuclear Cells)
The effect of the chemical compounds on the induced cytokine secretion of human PBMCs has been investigated. Here, the cytokine secretion has been induced by IL-1β which binding to its receptors leads to the activation of the MKNK signaling pathway.
Human PBMCs have been isolated from anti-coagulated human whole blood donated from healthy volunteers by pre-filling Leucosep tubes with ficoll-paque (15 ml, Biochrom, order ID: L6115) and adding 20 ml whole blood. After centrifugation of the blood at 800 g for 15 min at room temperature (RT) plasma including thrombocytes has been discarded. PBMCs were transferred to a new falcon tube, washed with PBS (phosphate-buffered saline) at 250 g for 10 min at RT and resuspended in complete medium [RPMI 1640, without L-glutamine (PAA, order ID: E15-039), 10% FCS; 50 U/ml Penicillin, 50 μg/ml Streptomycin (PAA, order ID: P11-010) and 1% L-glutamine (Sigma, order ID. G7513)]. The assay was performed in a 96-well plate at a cell density of 2.5×10^5 cells/well as triplicates. The compounds were serially diluted in DMSO and added to the PBMCs at a range of 3×10^−9 M to 1×10^−5M with a final concentration of 0.4% DMSO, respectively. Treatment of PBMCs with 0.4% DMSO was used as control. After 30 min of incubation, PBMCs were stimulated with 20 ng/ml IL-1β (R&D, order ID: 201-LB CF) for 24 hours. Cell viability was measured using the CellTiter-Glo Luminescent Assay (Promega, order ID: G7571) following the manufacturers protocol. The amount of secreted TNF-α (tumor necrosis factor-alpha) in the supernatant was determined using the Human Prolnflammatory 9-Plex (MSD, order ID: K15007B) according to manufacturer's instruction. The inhibitory activity was determined as the relation to the control in percent. IC50 values were calculated using the 4-parameter logistic model.

human full-length MKNK1, sequence (Q9BUB5 other isoform, or with tags, fused parts or gaps T344D): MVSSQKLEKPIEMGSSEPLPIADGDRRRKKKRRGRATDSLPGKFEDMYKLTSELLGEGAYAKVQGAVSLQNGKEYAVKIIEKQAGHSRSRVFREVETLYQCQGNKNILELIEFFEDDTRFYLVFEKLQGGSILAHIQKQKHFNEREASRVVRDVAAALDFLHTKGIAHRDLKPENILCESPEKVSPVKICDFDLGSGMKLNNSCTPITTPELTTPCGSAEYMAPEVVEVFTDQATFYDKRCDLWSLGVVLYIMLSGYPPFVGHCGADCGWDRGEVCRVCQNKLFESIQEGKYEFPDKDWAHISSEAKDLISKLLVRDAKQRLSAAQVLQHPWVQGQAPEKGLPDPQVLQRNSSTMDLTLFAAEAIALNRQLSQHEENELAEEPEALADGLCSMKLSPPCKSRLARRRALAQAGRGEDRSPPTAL

Compound | IC50 [1] [nM] | IC50 [2] [nM]
COc1cn2nccc2cc1Nc1ncnc2sc3c(c12)CC[C@H](C(=O)N(C)C)C3 [Example 15, (7S)-4-[(6-Methoxypyrazolo[1,5-a]pyridin-5-yl)amino]-N,N-dimethyl-5,6,7,8-tetrahydro[1]benzothieno[2,3-d]pyrimidine-7-carboxamide] | 4 | 10 to 100
CN(C)CCCN(C)C(=O)[C@H]1CCc2c(sc3ncnc(Nc4ccn5nccc5c4)c23)C1 [Example 27, (7S)—N-[3-(Dimethylamino)propyl]-N-methyl-4-(pyrazolo[1,5-a]pyridin-5-ylamino)-5,6,7,8-tetrahydro[1]benzothieno[2,3-d]pyrimidine-7-carboxamide] | 13 | ≥ 100
CN(C)C1CCN(C(=O)[C@H]2CCc3c(sc4ncnc(Nc5ccn6nccc6c5)c34)C2)CC1 [Example 32, [4-(Dimethylamino)piperidin-1-yl][(7S)-4-(pyrazolo[1,5-a]pyridin-5-ylamino)-5,6,7,8-tetrahydro[1]benzothieno[2,3-d]pyrimidin-7-yl]methanone] | 25 | 10 to 100
CN(CCN)C(=O)[C@H]1CCc2c(sc3ncnc(Nc4ccn5nccc5c4)c23)C1 [Example 39, (7S)—N-(2-Aminoethyl)-N-methyl-4-(pyrazolo[1,5-a]pyridin-5-ylamino)-5,6,7,8-tetrahydro[1]benzothieno[2,3-d]pyrimidine-7-carboxamide] | 41 | ≥ 100
CN(C)CCCN(C)C(=O)[C@H]1CCc2c(sc3ncnc(Nc4cc5ccnn5cc4Cl)c23)C1 [Example 51, (7S)-4-[(6-Chloropyrazolo[1,5-a]pyridin-5-yl)amino]-N-[3-(dimethylamino)propyl]-N-methyl-5,6,7,8-tetrahydro[1]benzothieno[2,3-d]pyrimidine-7-carboxamide] | 5 | 10 to 100
CN(C)CCN(C)C(=O)[C@H]1CCc2c(sc3ncnc(Nc4cc5ccnn5cc4Cl)c23)C1 [Example 53, (7S)-4-[(6-Chloropyrazolo[1,5-a]pyridin-5-yl)amino]-N-[2-(dimethylamino)ethyl]-N-methyl-5,6,7,8-tetrahydro[1]benzothieno[2,3-d]pyrimidine-7-carboxamide] | 9 | ≥ 100
CN(C)C1CN(C(=O)[C@H]2CCc3c(sc4ncnc(Nc5cc6ccnn6cc5Cl)c34)C2)C1 [Example 54, (7S)-4-[(6-Chloropyrazolo[1,5-a]pyridin-5-yl)amino]-5,6,7,8-tetrahydro[1]benzothieno[2,3-d]pyrimidin-7-yl[3-(dimethylamino)azetidin-1-yl]methanone] | 11 | 10 to 100
CN1CCN(C(=O)[C@H]2CCc3c(sc4ncnc(Nc5cc6ccnn6cc5Cl)c34)C2)CC1 [Example 65, (7S)-4-[(6-Chloropyrazolo[1,5-a]pyridin-5-yl)amino]-5,6,7,8-tetrahydro[1]benzothieno[2,3-d]pyrimidin-7-yl(4-methylpiperazin-1-yl)methanone] | 5 | 10 to 100
COc1cn2nccc2cc1Nc1ncnc2sc3c(c12)CC[C@H](C(=O)NC(C)C)C3 [Example 85, (7S)-4-[(6-Methoxypyrazolo[1,5-a]pyridin-5-yl)amino]-N-(propan-2-yl)-5,6,7,8-tetrahydro[1]benzothieno[2,3-d]pyrimidine-7-carboxamide] | 4 | 1 to 10
COc1cn2nccc2cc1Nc1ncnc2sc3c(c12)CC[C@H](C(=O)N(C)CC(F)F)C3 [Example 95, (7S)—N-(2,2-Difluoroethyl)-4-[(6-methoxypyrazolo[1,5-a]pyridin-5-yl)amino]-N-methyl-5,6,7,8-tetrahydro[1]benzothieno[2,3-d]pyrimidine-7-carboxamide] | 2 | 10 to 100
COc1cn2nccc2cc1Nc1ncnc2sc3c(c12)CC[C@H](C(=O)N1CC(C#N)C1)C3 [Example 98, 1-((7S)-4-[(6-Methoxypyrazolo[1,5-a]pyridin-5-yl)amino]-5,6,7,8-tetrahydro[1]benzothieno[2,3-d]pyrimidin-7-ylcarbonyl)azetidine-3-carbonitrile] | 1 | ≥ 100
COc1cn2nccc2cc1Nc1ncnc2sc3c(c12)CC[C@H](C(=O)N1CC(C)(O)C1)C3 [Example 100, (3-Hydroxy-3-methylazetidin-1-yl)(7S)-4-[(6-methoxypyrazolo[1,5-a]pyridin-5-yl)amino]-5,6,7,8-tetrahydro[1]benzothieno[2,3-d]pyrimidin-7-ylmethanone] | < 1 | 1 to 10
CCN(CCN(C)C)C(=O)[C@H]1CCc2c(sc3ncnc(Nc4cc5ccnn5cc4OC)c23)C1 [Example 115, (7S)—N-[2-(Dimethylamino)ethyl]-N-ethyl-4-[(6-methoxypyrazolo[1,5-a]pyridin-5-yl)amino]-5,6,7,8-tetrahydro[1]benzothieno[2,3-d]pyrimidine-7-carboxamide] | 1 | –
CCN(CCO)C(=O)[C@H]1CCc2c(sc3ncnc(Nc4cc5ccnn5cc4OC)c23)C1 [Example 117, (7S)—N-Ethyl-N-(2-hydroxyethyl)-4-[(6-methoxypyrazolo[1,5-a]pyridin-5-yl)amino]-5,6,7,8-tetrahydro[1]benzothieno[2,3-d]pyrimidine-7-carboxamide] | 1 | –
CCN(CCOC)C(=O)[C@H]1CCc2c(sc3ncnc(Nc4cc5ccnn5cc4OC)c23)C1 [Example 118, (7S)—N-Ethyl-N-(2-methoxyethyl)-4-[(6-methoxypyrazolo[1,5-a]pyridin-5-yl)amino]-5,6,7,8-tetrahydro[1]benzothieno[2,3-d]pyrimidine-7-carboxamide] | 1 | –
COCCN(CCOC)C(=O)[C@H]1CCc2c(sc3ncnc(Nc4cc5ccnn5cc4OC)c23)C1 [Example 119, (7S)—N,N-Bis(2-methoxyethyl)-4-[(6-methoxypyrazolo[1,5-a]pyridin-5-yl)amino]-5,6,7,8-tetrahydro[1]benzothieno[2,3-d]pyrimidine-7-carboxamide] | < 1 | –
COc1cn2nccc2cc1Nc1ncnc2sc3c(c12)CC[C@H](C(=O)N(C)C(C)(C)C)C3 [Example 120, (7S)—N-tert-Butyl-4-[(6-methoxypyrazolo[1,5-a]pyridin-5-yl)amino]-N-methyl-5,6,7,8-tetrahydro[1]benzothieno[2,3-d]pyrimidine-7-carboxamide] | 5 | –
COc1cn2nccc2cc1Nc1ncnc2sc3c(c12)CC[C@H](C(=O)N1C[C@@H]2C[C@H]1CN2C)C3 [Example 121, (7S)-4-[(6-Methoxypyrazolo[1,5-a]pyridin-5-yl)amino]-5,6,7,8-tetrahydro[1]benzothieno[2,3-d]pyrimidin-7-yl[(1S,4S)-5-methyl-2,5-diazabicyclo[2.2.1]hept-2-yl]methanone] | 1 | –
COc1cn2nccc2cc1Nc1ncnc2sc3c(c12)CC[C@H](C(=O)N1C[C@H]2C[C@@H]1CN2C)C3 [Example 122, (7S)-4-[(6-Methoxypyrazolo[1,5-a]pyridin-5-yl)amino]-5,6,7,8-tetrahydro[1]benzothieno[2,3-d]pyrimidin-7-yl[(1R,4R)-5-methyl-2,5-diazabicyclo[2.2.1]hept-2-yl]methanone] | < 1 | –
COc1cn2nccc2cc1Nc1ncnc2sc3c(c12)CC[C@H](C(=O)N1C[C@@H]2C[C@H]1CO2)C3 [Example 123, (7S)-4-[(6-Methoxypyrazolo[1,5-a]pyridin-5-yl)amino]-5,6,7,8-tetrahydro[1]benzothieno[2,3-d]pyrimidin-7-yl[(1S,4S)-2-oxa-5-azabicyclo[2.2.1]hept-5-yl]methanone] | 2 | –
COc1cn2nccc2cc1Nc1ncnc2sc3c(c12)CC[C@H](C(=O)N1C[C@H]2C[C@@H]1CO2)C3 [Example 124, (7S)-4-[(6-Methoxypyrazolo[1,5-a]pyridin-5-yl)amino]-5,6,7,8-tetrahydro[1]benzothieno[2,3-d]pyrimidin-7-yl[(1R,4R)-2-oxa-5-azabicyclo[2.2.1]hept-5-yl]methanone] | 1 | –
COc1cn2nccc2cc1Nc1ncnc2sc3c(c12)CC[C@H](C(=O)N1CCOC[C@H]1C)C3 [Example 126, (7S)-4-[(6-Methoxypyrazolo[1,5-a]pyridin-5-yl)amino]-5,6,7,8-tetrahydro[1]benzothieno[2,3-d]pyrimidin-7-yl[(3R)-3-methylmorpholin-4-yl]methanone] | 1 | –
(7S)-4-[(6-Chloropyrazolo[1,5-a]pyridin-5-yl)amino]-5,6,7,8-tetrahydro[1]benzothieno[2,3-d]pyrimidin-7-yl(4-[2-dimethylamino)ethyl](methyl)aminopiperidin-1-yl)methanone [Example 62] | 6 | –
